These results are taken from patent publication US11969408B2, “Method for improving mitophagy in subjects” (Amazentis SA, priority 2017, dated 2024).

Common to all, as to format: in vivo, human
One data set deals with plasma acylcarnitines. Briefly: Plasma metabolomics: acylcarnitine plasma levels. As to the method: Blood sampling was performed for analysis on plasma at the exact time-points described in the table below: Blood handling procedures: at each time point indicated in the table, a 6 mL blood sample was drawn into K2-EDTA coated tube. The blood samples were gently inverted a few times for complete mixing with the anticoagulant. The exact time of sample collection was recorded on the eCRF. Within 30 minutes following blood collection, each blood sample was centrifuged at 1500 g for 10 minutes at 4° C. 30 minutes after the centrifugation, the top layer of human plasma was transferred into 2 pre-labelled polypropylene tubes, containing approximately 1500 μL of plasma. Blood cells were not transferred. All sample tubes were clearly and appropriately labelled. Tubes were capped immediately from each time point and the plasma was be frozen in an upright position at approximately −80° C. for storage. […] Proprietary software was used to match ions to an in-house library of standards for metabolite identification and for metabolite quantitation by peak area integration. A total of 781 metabolites were quantified. […] The grey line in FIG. 11 corresponds to a fold change of 1, i.e. absence of effect. *P<0.05 correspond to a significant effect from D-1 (pre-dose) to D28, calculated after a repeated measures ANOVA. […]

Data set [1] is described as follows: Steady state plasma levels of total Urolithin A over 4-week dosing. To be noted: Day 31 and Day 32. As to the method: A double-blind, randomized, placebo controlled clinical trial was conducted in healthy elderly to establish the steady state levels of Urolithin A in plasma. Elderly subjects (61-82 years) (n=9), participated in each group of dosing. The subjects met all the inclusion and exclusion criteria of the study and signed informed consent. The subjects were overnight fasted and the plasma was collected in the morning before breakfast to assess steady state levels. Subjects were given a dose of Urolithin or placebo each morning for the 28 day trial. The urolithin A was given as softgel capsules containing 250 mg of Urolithin A in each capsule. Plasma samples were collected for assessment of Urolithin A steady state concentrations in the 4-week Urolithin A study at the following time points (Day 0, Day 7, Day 14, Day 28, Day 29, Day 31, and Day 32). […] On day 28 the subjects were admitted to a Phase 1 clinical trial unit and the kinetics of Urolithin A absorption, and elimination following multiple 4-week dosing were followed until 96 hours following the last dosing on Day 28. Plasma was collected at the following time-points post last dosing with Urolithin A on Day 28: pre-dose, 1 hr, 2 hr, 4 hr, 6 hr, 8 hr, 12 hr, 24 hr, 72 hr and 96 hr. […] The exact time of sample collection was recorded on the eCRF (electronic case report from). […]

In data set [2] the test system is genes associated with autophagy and mitophagy, mitochondrial biogenesis and dynamics, and fatty acid oxidation in skeletal muscle biopsies. The data set can be described thus: rtPCR analysis of gene expression levels in skeletal muscle biopsies. The procedure: Muscle biopsies were collected before the meal from the vastus lateralis muscle of the right leg in order to perform ex vivo measurements. Muscle biopsies were collected on Day −1 and Day 28 at pre-dose under fasted state using the Bergström biopsy needle technique. The minimal amount of each muscle tissue sample was approximately 50 mg. One third of the tissue was used for gene expression (≈50 mg), and was further divided into two equal portions: one portion for RNA analysis (≈25 mg) and one portion for DNA analysis (≈25 mg), both in a Safe-lock Tubes 2.0 ml, Eppendorf (part no. 0030.120.094). Muscle tissue was snap frozen using liquid nitrogen immediately after collection and further, long term storage will be in a −80° C. freezer. The mRNA was analysed by microarray. Quantification of mtDNA over nuclear DNA provided another measure of mitochondrial abundance. The shipment was done in dry ice by specialized carrier. Temperatures were monitored using data logger during all transport. The method used has been validated according to good clinical laboratory practices (GCLP) and ICH guideline Q2(R1) (Validation of analytical procedures) by the corresponding service provider. Every sample was analysed in at least technical duplicates for housekeeping and target genes. A Ct value (threshold cycle), corresponding to the cycle at which the fluorescence signal reaches the amplification phase, was determined for every technical replicate and gene. The method of the 2^−ΔΔCt (Livak, K., J., and Schmittgen, T. D., Methods, 2001) was then applied to determine the relative expression of each target gene. rtPCR analysis was carried out on skeletal muscle biopsies of human subjects administered urolithin A or placebo daily for 28 days to determine the expression levels of specific genes associated with autophagy and mitophagy (LAMP2, ULK1, PIK3C3, MAP1LC3B, SQSTM1, PARK2), mitochondrial biogenesis and dynamics (SIRT1, PPARGC1A, PPARA, ESRRA, MFN1, MFN2, OPA1), and fatty acid oxidation (CPT1B, FABP3). FIG. 6 provides bar graphs showing the fold-change in gene expression levels from day −1 to day 28 for each gene for patients administered 250 mg/day or 1000 mg/day urolithin A, over placebo. The bar graphs represent gene expression data, expressed as a percentage of change over placebo, i.e. a value of 0% means that there is no difference between the dose and the placebo group while a value of 100% means that there is an increase in 100% over placebo value.

[3] abbreviates: 1000 mg/day for 28 days, over placebo, P<0.05 Dunnett post-hoc.

Take `O=c1oc2cc(O)ccc2c2ccc(O)cc12` [Urolithin A]: in the data set on plasma acylcarnitines (28 days treatment at 1000 mg), the carnitine levels entry is given as “did not change”. In addition, the “plasma short chain up to long chain acylcarnitines” value in the data set with plasma acylcarnitines (after 28 days treatment at 1000 mg, day −1 to day 28) is on record as “overall decrease”. Further, the “steady state levels after the end of the 4-week UA administration” value in data set [1] is reported as “gradually declined”. In data set [2] (1000 mg vs placebo, ANOVA p=0.0524, Dunnett p=0.0180), the “Ulk1 gene expression change” value is “close to significant”. Besides, the “Ppargc1a gene expression change” value in data set [2] (1000 mg vs placebo, ANOVA p=0.1026, Dunnett p=0.0673) is recorded as “close to significant”. Besides, in data set [2] (1000 mg vs placebo, ANOVA p=0.1362, Dunnett p=0.0805), the “Cpt1b gene expression change” value is “close to significant”. The “Park2 gene expression change” value in data set [2] (1000 mg vs placebo, ANOVA p=0.2504, Dunnett p=0.1500) is reported as “close to significant”. Moreover, in data set [2] (1000 mg/day for 28 days, day 28 vs day −1, over placebo), the “expression of genes associated with autophagy, mitochondrial function, and/or fatty acid oxidation” value is recorded as “upregulation”. In data set [2] (setting [3]), the “FABP3 gene expression (fatty acid oxidation-related)” value is reported as “significant upregulation” and the “LAMP2 gene expression (autophagy/mitophagy-related)” value is recorded as “significant upregulation”.
